From article PMC6272176, “Antileishmanial and Cytotoxic Compounds from Valeriana wallichii and Identification of a Novel Nepetolactone Derivative” (Molecules, 2015) come the findings set out here.

Like-named read-outs stand apart in the source and are kept apart here. Some results are limits rather than exact numbers.

For one series, the system named is L. major promastigotes. Description: Antileishmanial activity against L. major promastigotes, AlamarBlue assay. It counts as cell-based, Leishmania major. Conditions: for antileishmanial activity (in words): verbal rating; for IC50: Leishmania major, read-out: IC50 (L. major). As to the method: (§1) All compounds isolated were subjected to the evaluation of their antileishmanial activity against L. major promastigotes in vitro and cytotoxicity against macrophages (J774.1 murine cell line) using the corresponding AlamarBlue^© assays (cf. Table 2).
(§2) Antileishmanial activity against L. major promastigotes and cytotoxicity against a murine macrophage cell line (J774.1) was determined using an AlamarBlue^© assay. Methods for both procedures have been reported previously. IC50 values are presented as mean values of two experiments.
For orientation: Alamar Blue is a resazurin reagent that responds to reducing activity.

For series [1], the system named is J774.1 murine macrophage cell line. Description: Cytotoxicity against macrophages (J774.1), AlamarBlue assay. It counts as cell-based. The conditions noted are these: for IC50: Mus musculus; for cytotoxicity (in words): verbal rating. Here is the method: as §1, §2
The mark [2] stands for this setting: L. major promastigotes in vitro.
Setting [3] is: L. major promastigotes in vitro, values marked *: pure or synthesized compounds, given in µM, mean of two experiments.
Setting [4] is: J774.1 macrophages, values marked *: pure or synthesized compounds, given in µM, mean of two experiments, read-out: IC50 (J774.1).
The mark [5] stands for this setting: L. major promastigotes in vitro, fractions containing isolated compounds, mean of two experiments.
[6] abbreviates: J774.1 macrophages, fractions containing isolated compounds, mean of two experiments, read-out: IC50 (J774.1).
Setting [7] is: J774.1 macrophages, fractions containing isolated compounds, mean of two experiments.

Broadly, the IC50 is the concentration that gives 50% inhibition. Consider `CC1(C)C2CCC1(C)C(OC(=O)C=Cc1ccc(O)c(O)c1)C2` (stereo not drawn) [Bornyl caffeate (1), bornyl caffeate], for which the “antileishmanial activity (in words)” value in the series with L. major promastigotes (setting [2]) is recorded as “moderate antileishmanial activity”. Further, the IC50 turned out to be 48.8 µM with L. major promastigotes (setting [3]) and 8.3 µM in series [1] (setting [4]).
The corresponding values for `CC(C)CC(=O)OC1CC2CCC1(C)C2(C)C` (stereo not drawn) [Bornyl isovalerate (13), bornyl isovalerate] are “no antileishmanial activity”, above 100 µM and above 100 µM.
For `CCCCCCCCCCCCCCCCOP(=O)([O-])OCC[N+](C)(C)C` [Miltefosine, reference compound], the half-inhibitory concentration (IC50) in series [1] (setting [4]) came to 56.5 µM.
For `CC(C)C1CCC2(C)CCCC(=O)C2(C)C1` (stereo not drawn) [Valeranone (12), valeranone], in the series with L. major promastigotes (setting [2]), the “antileishmanial activity (in words)” value is listed as “moderate”. For the same compound, the IC50 in the series on L. major promastigotes (setting [5]) is 60.8 µg/mL; in series [1] (setting [6]), 42.6 µg/mL. Besides, in series [1] (J774.1 macrophages), the “cytotoxicity (in words)” value is given as “moderate”.
On to `COc1ccc(C=CC(=O)OC2CC3CCC2(C)C3(C)C)cc1O` (stereo not drawn) [compound 2, bornyl isoferulate], for which, in the series with L. major promastigotes (setting [2]), the “antileishmanial activity (in words)” value is reported as “moderate antileishmanial activity”. Further, the values for the concentration for half-maximal inhibition (IC50) (with L. major promastigotes (setting [5]); in series [1] (setting [6])) were 16.7 µg/mL and 34.7 µg/mL, respectively.
Regarding `CC1CCC2(OC3OC(CO)C(O)C(O)C3O)C1C(=O)OC2(C)COC(=O)C=Cc1ccc(O)cc1` [compound 4, {[(3S,4S,7R,8S)-1-Oxo-3,7-dimethyl-4-(O-β-D-glucopyranosyl)oxy]hexahydrocyclopenta[c]furan-3-yl}-methyl-trans-4-hydroxycinnamate], the IC50 (in the series on L. major promastigotes (setting [5]); in series [1] (setting [6])) was above 100 µg/mL each time.
As to `C[C@@H]1CC[C@H]2[C@H](CO)COC(=O)[C@H]21` [compound 5, (4R,5S,8R,9S)-4-(Hydroxymethyl)-8-methylhexahydro-cyclopenta[c]pyranone], the IC50 with L. major promastigotes (setting [5]) is above 100 µg/mL; in series [1] (setting [6]), 17.5 µg/mL.
Regarding `CCC(C)CC(=O)OC1OC=C(COC(=O)CC(C)C)C2CC(OC(C)=O)C(O)(COC(=O)C(OC(=O)CC(C)C)C(C)C)C12` (stereo not drawn) [compound 6], the IC50 with L. major promastigotes (setting [5]) was 1.9 µg/mL; in series [1] (setting [6]) it was below 0.8 µg/mL.
The corresponding values for `CC(=O)OC1CC2C(COC(=O)CC(C)C)=COC(OC(=O)CC(C)C)C2C1(O)COC(=O)CC(C)C` (stereo not drawn) [compound 7] are 0.8 µg/mL and below 0.8 µg/mL.
In the case of `CC(=O)OCC1=COC(OC(=O)CC(C)C)C2C1=CC(OC(=O)CC(C)C)C2(O)COC(=O)CC(C)C` (stereo not drawn) [compound 8], the half-maximal inhibitory concentration (IC50) with L. major promastigotes (setting [3]) stood at 1.7 µM; in series [1] (setting [4]), 1 µM.
`CC(=O)OC1CC2C(COC(=O)CC(C)C)=COC(OC(=O)CC(C)C)C2C1(O)CCl` (stereo not drawn) [compound 9, valechlorine]: the IC50 turned out to be 2.3 µg/mL in the series with L. major promastigotes (setting [5]) and 1.9 µg/mL in series [1] (setting [6]).
Turning to `COc1cc(C2c3cc4c(cc3C(O)C3COC(=O)C23)OCO4)cc(OC)c1O` (stereo not drawn) [compound 15, 4'-demethylpodophyllotoxin], in the series on L. major promastigotes (setting [5]), the “IC50 (L. major)” value was above 100 µg/mL. Further, the “antileishmanial activity (in words)” value with L. major promastigotes (setting [2]) is given as “no antileishmanial activity”. Further, the “IC50 (J774.1)” value in series [1] (setting [7]) was below 0.8 µg/mL.
Regarding `COc1cc([C@@H]2c3cc4c(cc3[C@H](O)[C@H]3COC(=O)[C@H]23)OCO4)cc(OC)c1OC` [compound 16, podophyllotoxin], the “antileishmanial activity (in words)” value in the series with L. major promastigotes (setting [2]) is on record as “no antileishmanial activity”. The IC50 in the series on L. major promastigotes is above 100 µg/mL; in series [1] (J774.1, read-out: IC50 (J774.1)), below 0.8 µg/mL.
For `CC1CC(O)C2C1CC1CCC2(C)OC1(C)C` (stereo not drawn) [α-Kessyl alcohol (11), α-kessyl alcohol], the “antileishmanial activity (in words)” value in the series on L. major promastigotes (setting [2]) is listed as “rather good antileishmanial activity”. The half-maximal inhibitory concentration (IC50) came out at 5.8 µg/mL in the series on L. major promastigotes (setting [5]) and 1.7 µg/mL in series [1] (setting [6]).
Turning to `CC(C)=CCCC(C)C1(O)CC=C(C)CC1` (stereo not drawn) [β-Bisabolol (10), β-bisabolol], in the series on L. major promastigotes (setting [2]), the “antileishmanial activity (in words)” value is on record as “moderate”. The results for the IC50 (with L. major promastigotes (setting [5]); in series [1] (setting [6])) were 52.2 µg/mL and 37.1 µg/mL, respectively. The “cytotoxicity (in words)” value in series [1] (J774.1 macrophages) is recorded as “moderate”.
For pinoresinol [Pinoresinol (17)], in the series on L. major promastigotes (setting [5]), the “IC50 (L. major)” value is listed as above 100 µg/mL. In addition, the “antileishmanial activity (in words)” value in the series on L. major promastigotes (setting [2]) is reported as “no antileishmanial activity”. Besides, the “IC50 (J774.1)” value in series [1] (setting [7]) is below 0.8 µg/mL.
